Experimental findings from BindingDB's records for doi:10.1021/acsmedchemlett.8b00406 (China Agricultural University, 2018) are described below.

For the test, the target named is beta-hexosaminidase HsHex (Homo sapiens). Briefly: Inhibition of human beta-N-acetylhexosaminidase using p-nitrophenyl glycoside as substrate by spectrometric method.

As to `O=C1c2cccc3cccc(c23)C(=O)N1CCNCCN1C(=O)c2cccc3cccc(c23)C1=O`, the affinity, expressed as Ki, was 3.2 µM.
